Reference: paper PMC3977054, “Design, Synthesis and Biological Evaluation of 5-Oxo-1,4,5,6,7,8 Hexahydroquinoline Derivatives as Selective Cyclooxygenase-2 Inhibitors” (Iranian Journal of Pharmaceutical Research : IJPR, 2014)

Assays:
COX-1 = target: T1, COX-1 (Ovis aries, UniProt P05979); experiment: biochemical; details: ovine COX-1/COX-2 assay kit; mean of two determinations, deviation < 10% of the mean
T1 construct: purchased Cayman chemical, MI, USA
T1 sequence (P05979 25-600): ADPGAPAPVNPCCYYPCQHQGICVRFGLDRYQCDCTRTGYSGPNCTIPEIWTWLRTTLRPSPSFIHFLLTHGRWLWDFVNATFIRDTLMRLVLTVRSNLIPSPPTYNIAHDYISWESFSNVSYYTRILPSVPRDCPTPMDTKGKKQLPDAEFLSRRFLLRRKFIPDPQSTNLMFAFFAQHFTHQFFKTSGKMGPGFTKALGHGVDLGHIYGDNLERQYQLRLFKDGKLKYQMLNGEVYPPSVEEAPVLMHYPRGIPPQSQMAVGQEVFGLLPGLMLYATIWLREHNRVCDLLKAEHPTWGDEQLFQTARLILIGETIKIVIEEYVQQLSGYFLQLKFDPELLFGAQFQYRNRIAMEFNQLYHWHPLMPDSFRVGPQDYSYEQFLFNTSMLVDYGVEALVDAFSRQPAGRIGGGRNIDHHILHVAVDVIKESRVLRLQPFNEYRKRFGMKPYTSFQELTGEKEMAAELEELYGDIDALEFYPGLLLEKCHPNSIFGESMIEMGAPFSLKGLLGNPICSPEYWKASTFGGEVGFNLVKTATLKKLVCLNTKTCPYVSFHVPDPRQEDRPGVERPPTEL
Protocol: (§1) In-vitro cyclooxygenase (COX) inhibition assays
(§2) The assay was performed using an enzyme chemiluminescent kit (Cayman chemical, MI, USA) according to our previously reported method ([10]).

COX-2 = target: T2, COX-2 (Ovis aries, UniProt P79208); experiment: biochemical; details: for COX-2 S.I. (COX-1 IC50/ COX-2 IC50): in-vitro COX-2 selectivity index; for IC50: ovine COX-1/COX-2 assay kit, mean of two determinations, deviation < 10% of the mean
T2 construct: purchased Cayman chemical, MI, USA
T2 sequence (P79208 17-603): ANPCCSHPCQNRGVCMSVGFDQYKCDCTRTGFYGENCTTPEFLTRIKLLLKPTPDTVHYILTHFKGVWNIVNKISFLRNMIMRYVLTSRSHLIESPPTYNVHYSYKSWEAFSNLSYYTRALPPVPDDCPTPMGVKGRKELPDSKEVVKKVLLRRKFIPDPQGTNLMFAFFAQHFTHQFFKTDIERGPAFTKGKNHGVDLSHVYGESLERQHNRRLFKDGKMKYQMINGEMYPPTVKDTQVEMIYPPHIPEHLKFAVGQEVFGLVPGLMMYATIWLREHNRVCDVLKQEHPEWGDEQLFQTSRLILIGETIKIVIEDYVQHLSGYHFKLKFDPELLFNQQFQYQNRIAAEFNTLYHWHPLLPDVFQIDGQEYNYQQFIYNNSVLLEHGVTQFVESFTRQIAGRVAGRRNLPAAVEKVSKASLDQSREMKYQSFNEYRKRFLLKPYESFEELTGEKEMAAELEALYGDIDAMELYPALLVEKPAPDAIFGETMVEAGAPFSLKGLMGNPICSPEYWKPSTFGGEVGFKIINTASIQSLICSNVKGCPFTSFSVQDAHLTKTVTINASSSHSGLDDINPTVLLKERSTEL
Protocol: as §1, §2

| Compound | IC50 (COX-1) | COX-2 S.I. (COX-1 IC50/ COX-2 IC50) (COX-2) | IC50 (COX-2) | melting point |
| --- | --- | --- | --- | --- |
| CC1(C)CC(=O)C2=C(C1)NC(c1ccc(S(C)(=O)=O)cc1)=CC2c1ccccc1 (stereo not shown) [Compound 9a] | 2.6 µM | 3.3 | 0.8 µM |  |
| Cc1ccc(C2C=C(c3ccc(S(C)(=O)=O)cc3)NC3=C2C(=O)CC(C)(C)C3)cc1 (stereo not shown) [Compound 9b] | 2.5 µM | 5.6 | 0.45 µM |  |
| COc1ccc(C2C=C(c3ccc(S(C)(=O)=O)cc3)NC3=C2C(=O)CC(C)(C)C3)cc1 (stereo not shown) [Compound 9c, 7,8-Dihydro-7,7-dimethyl-4-(4-methoxyphenyl)-2-(4-(methylsulfonyl)phenyl) quinolin-5(1H, 4H, 6H)-one] | 16.6 µM |  | 0.17 µM | 250 to 253 °C |
| CC1(C)CC(=O)C2=C(C1)NC(c1ccc(S(C)(=O)=O)cc1)=CC2c1ccc(F)cc1 (stereo not shown) [Compound 9d] | 12.9 µM | 43 | 0.3 µM | 130 to 133 °C |
| CC1(C)CC(=O)C2=C(C1)NC(c1ccc(S(C)(=O)=O)cc1)=CC2c1ccc(Cl)cc1 (stereo not shown) [Compound 9e] | 18.7 µM | 3.8 | 4.9 µM | 232 to 236 °C |
| CC1(C)CC(=O)C2=C(C1)NC(c1ccc(S(C)(=O)=O)cc1)=CC2c1ccc(Br)cc1 (stereo not shown) [Compound 9f] | 20.9 µM | 2.1 | 10.1 µM | 237 to 240 °C |
| CC1(C)CC(=O)C2=C(C1)NC(c1ccc(S(C)(=O)=O)cc1)=CC2c1ccc([N+](=O)[O-])cc1 (stereo not shown) [Compound 9g] | 17.6 µM | 1.1 | 16.6 µM |  |
| CC1(C)CC(=O)C2=C(C1)NC(c1ccccc1)=CC2c1ccc(S(C)(=O)=O)cc1 (stereo not shown) [Compound 9h] | 3.6 µM | 3.1 | 1.16 µM | 205 to 208 °C |

Now from value to molecule:

| IC50 (COX-1) | COX-2 S.I. (COX-1 IC50/ COX-2 IC50) (COX-2) | IC50 (COX-2) | melting point | Compound |
| --- | --- | --- | --- | --- |
| 2.9 µM | 2.2 | 1.3 µM | 223 to 225 °C | Cc1ccc(C2=CC(c3ccc(S(C)(=O)=O)cc3)C3=C(CC(C)(C)CC3=O)N2)cc1 (stereo not shown) [Compound 9i, 7,8-Dihydro-7,7-dimethyl-2-(4-methylphenyl)-4-(4-(methylsulfonyl)phenyl) quinolin-5(1H, 4H, 6H)-one] |
| 18.7 µM | 62.3 | 0.3 µM | 226 to 230 °C | COc1ccc(C2=CC(c3ccc(S(C)(=O)=O)cc3)C3=C(CC(C)(C)CC3=O)N2)cc1 (stereo not shown) [Compound 9j, 7,8-Dihydro-2-(4-methoxyphenyl)-7,7-dimethyl-4-(4-(methylsulfonyl)phenyl) quinolin-5(1H, 4H, 6H)-one] |
| 14.2 µM | 14.2 | 1 µM | 226 to 230 °C | CC1(C)CC(=O)C2=C(C1)NC(c1ccc(F)cc1)=CC2c1ccc(S(C)(=O)=O)cc1 (stereo not shown) [Compound 9k, 2-(4-Fluorophenyl)-7,8-dihydro-7,7-dimethyl-4-(4-(methylsulfonyl)phenyl) quinolin-5 (1H, 4H, 6H)-one] |
| 21.6 µM | 3.1 | 6.9 µM | 226 to 230 °C | CC1(C)CC(=O)C2=C(C1)NC(c1ccc(Cl)cc1)=CC2c1ccc(S(C)(=O)=O)cc1 (stereo not shown) [Compound 9l, 2-(4-Cholorophenyl)-7,8-dihydro-7,7-dimethyl-4-(4-(methylsulfonyl)phenyl) quinolin-5(1H, 4H, 6H)-one] |
| 17.9 µM | 1.3 | 13.2 µM | 226 to 230 °C | CC1(C)CC(=O)C2=C(C1)NC(c1ccc(Br)cc1)=CC2c1ccc(S(C)(=O)=O)cc1 (stereo not shown) [Compound 9m, 2-(4-Bromophenyl)-7,8-dihydro-7,7-dimethyl-4-(4-(methylsulfonyl)phenyl) quinolin-5 (1H, 4H, 6H)-one] |
| 18.6 µM | 0.7 | 24.9 µM | 226 to 230 °C | CC1(C)CC(=O)C2=C(C1)NC(c1ccc([N+](=O)[O-])cc1)=CC2c1ccc(S(C)(=O)=O)cc1 (stereo not shown) [Compound 9n, 7,8-Dihydro-7,7-dimethyl-4-(4-(methylsulfonyl)phenyl)-2-(4-nitrophenyl) quinolin-5 (1H, 4H, 6H)-one] |
